Test results from patent publication US9376499B2, “PAR-1 activation by metalloproteinase-1 (MMP-1)” (Tufts Medical Center, Inc., priority 2009, dated 2016).
Non-standard residues stand in square brackets, D forms with d. Residues, ends and D or L forms follow the SMILES beside them. No end group written: not given here. *: point of attachment. 4Abz = Nc1ccc(C(=O)O)cc1; NHOH = ON*

What was measured:
[1] = Carotid artery FeCl3 injury arterial thrombosis model; type: in vivo, guinea pig; details: for prolongation of the mean occlusion time: P1pal-7 alone 0.3 mg/kg, FN-439 alone 2.0 mg/kg i.v.
Text: To assess the efficacy on arterial thrombosis by blockade of thrombin, MMP-1, or PAR1, a standard carotid artery FeCl3 injury model was used in guinea pigs. FeCl3 causes denudation of the artery and exposure of type I collagen and other subendothelial matrix proteins. The effects of blocking thrombin with bivalirudin, MMP-1 with FN-439, and PAR1 with either the small molecule antagonist RWJ-56110 or the P1pal-7 pepducin on arterial thrombosis were then compared using a dopier probe.
For these arterial thrombosis experiments, 10 min after i.v. administration of vehicle (−), bivalirudin, RWJ-56110, P1 pal-7 or FN-439 (n=4-5) through the jugular vein at the indicated concentrations, the right carotid arteries were injured for 20 min using a 24 mm^2 piece of Bio-Rad Trans-Blot paper soaked in 20% FeCl3. Arterial flow 5 mm distal to the site of injury was measured with a 0.5 V Doppler probe (Transonic Systems). An arterial occlusion was defined as a flow rate of <0.01 V for ≧5 min. Doppler measurements were terminated at the 30 min time point following injury (* designates p<0.05).

platelets = test: Platelet thrombus formation on collagen surface under arterial flow, heparin-anticoagulated whole blood; type: cell-based, human; details: heparin 10 U/mL; shear rate 1,000 s-1; FN-439 3 μM, RWJ-56110 1 μM, pepducins 3 μM, aspirin 1 mM
Procedure: Following incubation with inhibitors, the blood was perfused over a glass slide coated with fibrillar collagen type I.
A flow chamber (Glycotech) with Type-I fibrillar collagen-coated glass slides was mounted on the stage of an IMT-2 inverted microscope (Olympus) equipped with Retiga 1300 digital camera (QImaging) and 40× objective. One of the flow chamber inlets was connected to a syringe pump (Harvard Apparatus) calibrated to create a shear rate of 1,000^s-1. The whole blood pretreated with the various pharmacologic inhibitors was then perfused over the collagen-coated glass slide. After 2-15 min of perfusion, blood was removed from the flow chamber by gentle displacement with PIPES buffer and images of 8-10 fields were acquired using OpenLab software (Improvision). Acquired images were further analyzed using NIH Image 1.63 software. Images were first sharpened and the edges of separate platelets and platelet aggregates were determined. Following the adjustment of threshold, images were converted into the binary format, and the particle analysis function was activated to highlight the regions covered by platelets with the sensitivity set to one single adherent thrombocyte. For the conversion of pixels into square micrometers, a calibration curve was built using 2.5, 6, 20, 25, and 45 μm polystyrene beads (Polyscience) using acquisition conditions identical to the experimental. The mean area of formed thrombus was determined at 7 min. Area measurements in FIG. 6B represent the mean±s.e. of three separate experiments from five different blood donors.

MAPKAP-K2 = test: Collagen activation of phospho-MAPKAP-K2 in platelets (data not shown); type: cell-based, human
[2] = Atherosclerotic lesion area in ApoE-deficient mice (en face Oil-Red-O); type: in vivo, mouse; details: high-fat diet 15 weeks, s.c. 6 days a week, FN-439 5 mg/kg, P1pal-7 10 mg/kg; for mean lesion area, abdominal section of the aorta: vehicle 8.9%; for mean lesion area, aortic section, % of the total area: vehicle 12.9%
Procedure: Twenty five (25) 86.129P2-Apoe^fm1Unc/J mice, 7 weeks old, were separated into 3 groups and fed ad libitum with high-fat/high-cholesterol diet (21% fat, 0.21% cholesterol) (0120798, Research Diets) for 15 weeks. Group I included 8 mice (n=8) was used as a control group and received Vehicle (20% DMSO in 1×PBS). Group II included 8 mice (n=8) that were treated with MMP Inhibitor I FN-439 (Calbiochem) at a dose of 5 mg/kg. Lastly, group III included 9 mice (n=9) treated with 10 mg/kg of the P1pal-7 pepducin lipopeptide. […] P1pal-7 is a cell-penetrating pepducin lipopeptide based on the third intracellular loop (i3) of human PAR1 and acts as an antagonist of PAR1 signaling. All mice were injected subcutaneously with 100 μl of the corresponding treatment for 6 days a week. At the end of the treatment, and after a 4 hours fasting, the mice were anesthetized with ketamine/xylazine and pressure-fixed with 10% formalin. The heart and the aorta of each mouse were isolated, removed and fixed for 2 days in 10% formalin and adventitial fat was removed. The abdominal area of the aorta was cut and used for whole mount immunohistochemistry. The “aortic arch/thoracic” area and the rest of the “abdominal/iliac” area of the aorta were cut open and pinned on dissecting black wax and used for “en face” staining with Oil-Red-O.
To study the extent of artherosderotic plaque formation, pinned aortas were first fixed in 10% formalin and kept in 1×PBS. The aorta of the mice were then subjected to “en face” staining with Oil-Red-O, which stains lipids red. Briefly, the PBS was drained from the samples and the stain solution was added for 45 min. The stain was drained and the samples were washed first with 70% Ethanol and then with water, in order to remove the background. Digital pictures of the stained aortas were taken and the MetaXpress software (Molecular Devices) was used to define and quantify the total aortic area as well as the lesion areas. The ratio of lesion area to the total aortic area was calculated for the “aortic arch/thoracic” and the “abdominal/iliac” area. The aorta of each mouse was isolated and separated into three sections. The abdominal section (before and after the renal arteries) was separated and used for whole mount immunohistochemistry. The remaining sections were the one from the aortic arch to the mesenteric artery (aortic) and the other from after the renal arteries to the iliac arteries (abdominal). These sections of the aorta were used for the “en face” staining and the estimation of the atherosclerotic lesion area.

[3] = Collagen-induced systemic platelet activation (thrombocytopenia) in guinea pigs; type: in vivo, guinea pig; details: i.v. P1pal-7 3 mg/kg or FN-439 10 mg/kg, 10 min before 200 μg collagen
Procedure: Animal experiments were performed in accordance with the National Institutes of Health guidelines and approved by the Tufts Medical Center Institutional Animal Care and Use Committee. 2-4 week old Hartley guinea pigs (170-260 g) were anesthetized by an i.p. injection of xylazine (10 mg/kg) plus ketamine (50 mg/kg) and then catheterized via the left jugular vein and injected (200 μL) with either vehicle (20% DMSO/80% water), P1pal-7 or FN-439. For determination of collagen-dependent systemic platelet activation, 10 min after administration of inhibitors, 200 μg collagen in 200 μL of PBS was delivered via the jugular vein. Ten min after collagen injection, blood was collected into sodium citrate (1% v/v final) from the contralateral jugular vein and platelet counts were measured with a Hemavet850. The enzymatic activity of active MMP-1 in supernatants and platelet lysates was determined using DQ collagen I as fluorogenic substrate in the presence or absence of 3 μM FN-439, or 20 μg/ml of control IgG or a MMP-1 blocking Ab (preincubated for 2 h at 37° C.), as indicated.
Intravascular platelet activation was then induced by an intravenous injection of collagen into the guinea pigs. Vehicle, P1pal-7 (3 mg/kg) or FN-439 (10 mg/kg) were delivered i.v. to the internal jugular vein of guinea pigs (n=6) and allowed to circulate for 10 min. […]

Row | Compound | additional prolongation of arterial occlusion time in combination ([1]; 0.13 mg/kg P1pal-7 supplemented with 0.18 mg/kg bivalirudin) | prolongation of the mean occlusion time [1] [%] | attenuation of growth rate and size of platelet aggregate strings (platelets) [%] | block of collagen-activation of phospho-MAPKAP-K2 (MAPKAP-K2) | mean lesion area, abdominal section of the aorta [2] [%] | mean lesion area, aortic section, % of the total area [2] [%] | protection against collagen-induced thrombocytopenia / intravascular platelet activation [3]
1 | P1pal-7: PAR1 i3 loop pepducin lipopeptide, KKSRALF (SEQ ID NO. 2), palmitate (also: palmitate, site not given here) | no additional prolongation | 80 | ~75 | blocked | 2.3 | 8.1 | almost completely protected
2 | CC(C)C[C@@H](NC(=O)[C@@H]1CCCN1C(=O)CNC(=O)c1ccc(N)cc1)C(=O)N[C@H](C)C(=O)NO [FN-439] (H-[4Abz]GP[dL][dA]-{NHOH}) |  | 90 | ~75 | blocked | 4.1 | 10.7 | significant protection
